Peptide text beside a SMILES is read from it. * marks the point of attachment. Cbz = O=C(OCc1ccccc1)*
What was measured:
Mast4 [1] = experiment: Mast4 degradation (cycloheximide chase) in Mast4-PDZ-overexpressing C3H10T1/2 cells with CHIR-99021; type: cell-based, murine; design: dose or concentration left out as unconfirmed; conditions: (FIG. 22d)
Excerpt: FIGS. 22a-22e show Mast4 induction during osteogenesis and GSK-3b regulation of Mast4 expression. (a) The schematic representation of osteogenic differentiation of C3H10T1/2 cells. (b) The indicated C3H10T1/2 cells were differentiated into osteoblasts for 10 days, followed by Alizarin Red S staining. (c) C3H10T1/2 cells were differentiated into osteoblasts for 10 days, followed by western blot analysis for the expression of Mast4 and key Wnt signaling molecules. (d) Mast4-PDZ-overexpressing C3H10T1/2 cells were treated with cycloheximide (CHX; […]) for the indicated time in the absence or presence of CHIR-99021 ([…]). (e) The wild-type and GSK-3b-depleted HA-Mast4-PDZ-overexpressing C3H10T1/2 cells were treated with MG-132 ([…] for 4 h) and CHIR-99021 ([…]). (b-d) The representative result were obtained from at least three separate experiments.
For the immunoprecipitation assay, cell extracts were incubated with the indicated primary antibodies overnight at 4° C. Antibody-bound proteins were precipitated with Dynabeads Protein G (Invitrogen). Cells were lysed in a RIPA buffer containing protease inhibitor cocktail (Complete; Roche). Samples were separated by SDS-PAGE, followed by electrotransfer to polyvinylidene difluoride membranes (PVDF; Millipore). […] All signals were detected by Amersham Imager 600 (GE Healthcare Life Sciences).

Mast4 [2] = experiment: Mast4-PDZ expression in C3H10T1/2 cells transfected with Mast4-PDZ and GSK-3β, CHIR-99021 treatment (western blot); type: cell-based, murine; conditions: CHIR-99021 10 μM for 9 h (FIG. 4d)
Method: Cell lysates were immunoprecipitated with Flag antibody and immunoblotted with the indicated antibodies. k MC3T3-E1 cells were transfected with Mast4-PDZ WT and Δ632-636, followed by treatment of Wnt3a conditioned medium (2.5 h). l 6xOSE-Luc, Mast4-PDZ WT and Δ632-636 were transfected to C3H10T1/2 cells, followed by treatment of Wnt3a conditioned medium (18 h). […] Unpaired two-tailed Student's t test (P<0.05) with Benjamini-Hochberg correction for multiple tests was conducted for all statistical analyses. b-k The representative results were obtained from at least three independent experiments. TCL: total cell lysates.
For the immunoprecipitation assay, cell extracts were incubated with the indicated primary antibodies overnight at 4° C. Antibody-bound proteins were precipitated with Dynabeads Protein G (Invitrogen). Cells were lysed in a RIPA buffer containing protease inhibitor cocktail (Complete; Roche). Samples were separated by SDS-PAGE, followed by electrotransfer to polyvinylidene difluoride membranes (PVDF; Millipore). The membrane was blocked for 1 h at room temperature and incubated overnight at 4° C. with the primary antibodies. Horseradish peroxidase-conjugated antibodies (Millipore) were used as secondary antibodies. The peroxidase reaction products were visualized with WESTZOL (Intron). All signals were detected by Amersham Imager 600 (GE Healthcare Life Sciences).

Sox9 = experiment: Mast4-induced Sox9 degradation in C3H10T1/2 cells with MG-132 treatment (western blot); type: cell-based, murine; conditions: C3H10T1/2 cells transfected with Myc-Sox9 and Mast4-PDZ, MG-132 10 mM for 6 h (FIG. 16e)
Method: (a) The indicated C3H10T1/2 cells were differentiated into chondrocytes for 6 days, followed by Sox9 ChIP on the Col2a1 gene. (b) 4xCol2a1-luc was transiently overexpressed in LPCX control and Mast4 PDZ-overexpressing C3H10T1/2 cells, followed by TGF-b1 treatment (3 ng/ml for 24 h). (a and b) Data are representative mean±SD of three independent experiments, each conducted in triplicate (n=3). Unpaired two-tailed Student's t test (P<0.05) with Benjamini-Hochberg correction for multiple tests was conducted for all statistical analyses. P values versus WT. (c) Full-length (HA-Mast4-FULL) and truncated Mast4 (HA-Mast4-PDZ) together with siMAST4 (50 pmol) that targets exogenous Mast4 (human) were co-transfected with Myc-Sox9 into C3H10T1/2 cells. Due to inefficient detection of full length Mast4 with HA antibody, Mast4 antibody which recognizes the C-terminus was used. (d) The indicated C3H10T1/2 cells were differentiated to chondrocytes for 6 days, followed by MG-132 ([…] for 6 h) treatment. Endogenous Sox9 was immunoprecipitated, and the complexes were analyzed by western blot using phospho-serine and Sox9 antibodies. […]
(§1) For the immunoprecipitation assay, cell extracts were incubated with the indicated primary antibodies overnight at 4° C. […] All signals were detected by Amersham Imager 600 (GE Healthcare Life Sciences).

Mast4-PDZ P628A/Y634A = Mast4-PDZ P628A/Y634A (UniProt O15021)
Mast4-PDZ P628A/Y634A, sequence (O15021 whole entry P628A/Y634A, looked up): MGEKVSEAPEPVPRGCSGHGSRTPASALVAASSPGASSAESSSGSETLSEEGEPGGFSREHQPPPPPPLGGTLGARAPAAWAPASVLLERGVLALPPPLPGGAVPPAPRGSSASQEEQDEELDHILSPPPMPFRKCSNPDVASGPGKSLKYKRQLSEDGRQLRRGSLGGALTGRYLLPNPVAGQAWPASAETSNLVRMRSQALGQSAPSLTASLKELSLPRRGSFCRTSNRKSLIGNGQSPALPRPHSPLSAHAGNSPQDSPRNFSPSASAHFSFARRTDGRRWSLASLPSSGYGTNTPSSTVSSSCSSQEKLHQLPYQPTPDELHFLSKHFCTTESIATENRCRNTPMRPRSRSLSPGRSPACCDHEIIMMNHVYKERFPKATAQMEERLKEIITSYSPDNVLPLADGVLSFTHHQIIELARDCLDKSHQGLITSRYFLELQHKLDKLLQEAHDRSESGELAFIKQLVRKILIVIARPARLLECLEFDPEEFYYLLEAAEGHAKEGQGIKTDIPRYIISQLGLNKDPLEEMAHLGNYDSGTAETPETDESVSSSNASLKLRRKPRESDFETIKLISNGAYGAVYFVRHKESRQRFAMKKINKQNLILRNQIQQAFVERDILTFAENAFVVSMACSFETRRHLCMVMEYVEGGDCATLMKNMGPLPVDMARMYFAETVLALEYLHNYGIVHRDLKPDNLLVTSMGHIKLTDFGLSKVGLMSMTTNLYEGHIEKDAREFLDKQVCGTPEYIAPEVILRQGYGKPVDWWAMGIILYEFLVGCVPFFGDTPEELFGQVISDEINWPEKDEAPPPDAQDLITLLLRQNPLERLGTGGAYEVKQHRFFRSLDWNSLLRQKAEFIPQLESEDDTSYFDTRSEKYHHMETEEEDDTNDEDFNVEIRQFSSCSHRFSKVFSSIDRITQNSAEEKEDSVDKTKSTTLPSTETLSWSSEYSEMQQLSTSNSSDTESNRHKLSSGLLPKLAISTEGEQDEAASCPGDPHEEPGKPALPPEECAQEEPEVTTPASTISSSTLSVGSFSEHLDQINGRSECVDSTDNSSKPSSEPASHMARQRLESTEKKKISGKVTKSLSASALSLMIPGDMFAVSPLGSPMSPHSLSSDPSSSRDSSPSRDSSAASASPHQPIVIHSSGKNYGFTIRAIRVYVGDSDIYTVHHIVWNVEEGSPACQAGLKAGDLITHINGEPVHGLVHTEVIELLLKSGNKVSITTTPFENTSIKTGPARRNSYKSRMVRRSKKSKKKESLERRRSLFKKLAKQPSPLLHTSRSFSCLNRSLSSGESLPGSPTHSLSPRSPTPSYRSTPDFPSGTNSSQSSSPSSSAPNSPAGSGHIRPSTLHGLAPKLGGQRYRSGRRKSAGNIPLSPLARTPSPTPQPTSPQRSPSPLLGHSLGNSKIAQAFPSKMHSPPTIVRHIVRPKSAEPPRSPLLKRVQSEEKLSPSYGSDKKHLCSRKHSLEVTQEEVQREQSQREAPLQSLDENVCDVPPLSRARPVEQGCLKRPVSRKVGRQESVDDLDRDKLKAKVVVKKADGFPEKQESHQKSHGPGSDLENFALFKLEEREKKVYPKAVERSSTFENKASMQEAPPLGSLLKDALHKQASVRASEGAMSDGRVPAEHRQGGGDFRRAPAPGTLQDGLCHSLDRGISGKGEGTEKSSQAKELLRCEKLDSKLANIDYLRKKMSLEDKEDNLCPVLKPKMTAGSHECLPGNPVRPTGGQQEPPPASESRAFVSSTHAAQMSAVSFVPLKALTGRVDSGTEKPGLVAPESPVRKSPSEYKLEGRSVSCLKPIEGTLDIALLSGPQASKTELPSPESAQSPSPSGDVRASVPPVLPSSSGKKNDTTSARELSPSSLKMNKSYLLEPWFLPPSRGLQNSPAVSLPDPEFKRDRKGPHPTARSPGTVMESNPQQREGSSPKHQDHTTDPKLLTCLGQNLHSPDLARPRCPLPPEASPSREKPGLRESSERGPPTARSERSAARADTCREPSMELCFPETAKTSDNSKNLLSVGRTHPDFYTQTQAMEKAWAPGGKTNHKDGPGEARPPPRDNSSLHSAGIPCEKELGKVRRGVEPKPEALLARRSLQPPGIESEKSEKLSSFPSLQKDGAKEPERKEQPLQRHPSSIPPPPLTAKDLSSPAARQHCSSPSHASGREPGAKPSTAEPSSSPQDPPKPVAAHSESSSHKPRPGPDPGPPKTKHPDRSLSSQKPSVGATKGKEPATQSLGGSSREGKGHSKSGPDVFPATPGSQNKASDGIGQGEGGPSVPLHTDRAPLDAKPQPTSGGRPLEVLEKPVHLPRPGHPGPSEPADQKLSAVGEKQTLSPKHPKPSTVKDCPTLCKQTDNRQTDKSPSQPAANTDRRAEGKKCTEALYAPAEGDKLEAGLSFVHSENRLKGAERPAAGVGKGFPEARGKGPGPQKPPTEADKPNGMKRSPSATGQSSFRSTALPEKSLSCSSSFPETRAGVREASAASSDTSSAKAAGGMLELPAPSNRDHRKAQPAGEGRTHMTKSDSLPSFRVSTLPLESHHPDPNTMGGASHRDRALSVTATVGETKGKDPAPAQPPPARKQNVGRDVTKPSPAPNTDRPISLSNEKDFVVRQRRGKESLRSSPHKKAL

Mast4 [3] = experiment: Mast4 expression by western blot and RT-PCR in C3H10T1/2 cells treated with TGF-β1; type: cell-based, murine; conditions: TGF-β1 for 48 h (FIG. 3c)
Method: FIGS. 3a-3g show TGF-β1-induced suppression of Mast4 enhances chondrogenesis by increasing Sox9-Smad3 association. a Sox9 and Smad3 were co-transfected to wild-type and Mast4-depleted C3H10T1/2 cells, followed by TGF-β1 treatment (5 ng/ml for 30 minutes). Sox9 was immunoprecipitated using HA antibody. Band intensities representing GFP-Smad3 and HA-Sox9 expression level in the immunoprecipitates were converted by densitometry using ImageJ software into the ratio of Smad3 to Sox9. Data are reported as mean±SD of three independent experiments (n=3). […]
Total RNA was prepared using EasyBlue (Boca Scientific). […] Quantitative real-time PCR was performed using Power SYBR Green PCR Master Mix (Applied Biosystems) on the QuantStudio 5 Real-Time PCR Instrument (Applied Biosystems). The mRNA levels of various genes were measured in triplicate and normalized with Gapdh. […]
as §1

Mast4 promoter [4] = experiment: Smad3 ChIP assay on Mast4 gene in differentiating C3H10T1/2 cells; type: cell-based, murine; conditions: 6 days chondrogenic differentiation, TGF-β1 5 ng/ml for 48 h (FIG. 3e, FIG. 20)
Method: (§2) FIGS. 3a-3g show TGF-β1-induced suppression of Mast4 enhances chondrogenesis by increasing Sox9-Smad3 association. a Sox9 and Smad3 were co-transfected to wild-type and Mast4-depleted C3H10T1/2 cells, followed by TGF-β1 treatment (5 ng/ml for 30 minutes). Sox9 was immunoprecipitated using HA antibody. Band intensities representing GFP-Smad3 and HA-Sox9 expression level in the immunoprecipitates were converted by densitometry using ImageJ software into the ratio of Smad3 to Sox9. Data are reported as mean±SD of three independent experiments (n=3). Unpaired two-tailed Student's t test (P<0.05) was conducted for statistical analysis. b Smad3 ChIP on Col2a1 gene assay was performed in differentiating C3H10T1/2 cells for 6 days. c Mast4 expression was examined by western blot and RT-PCR of C3H10T1/2 cells treated with TGF-β1 for 48 h. d Luciferase assay was conducted in undifferentiated C3H10T1/2 cells. Vactosertib (0.5 μM) was pre-treated for 2 h prior to TGF-β1 (5 ng/ml) treatment for 24 h. e Smad3 ChIP assay on Mast4 gene was conducted in C3H10T1/2 cells undergoing chondrogenic differentiation for 6 days. […]

Mast4 promoter [5] = experiment: Mast4 promoter luciferase assay in undifferentiated C3H10T1/2 cells; type: cell-based, murine; conditions: TGF-β1 5 ng/ml for 24 h (FIG. 3d)
Method: as §2, with “cells.” for “cells. Vactosertib (0.5 μM) was pre-treated for 2 h prior to TGF-β1 (5 ng/ml) treatment for 24 h. e Smad3 ChIP assay on Mast4 gene was conducted in C3H10T1/2 cells undergoing chondrogenic differentiation for 6 days.”
C3H10T1/2 cells were transiently transfected with 4xCol2a1-luc, Smad3/4-responsive promoter (CAGA)12-luc, SBE-luc, 6xOSE-luc, MAST4-promoter luciferase report plasmids, HA-MAST4 PDZ, Myc-Sox9 WT/S494A/S494D plasmids using polyethylenimine (Polysciences). […] The luciferase activities were analyzed using the Luciferase Assay System kit (Promega) according to the manufacturer's protocol. […]

Mast4 [6] = experiment: Mast4 expression in human primary chondrocytes treated with TGF-β1; type: cell-based; conditions: TGF-β1 5 ng/ml for 24 h and 48 h (FIG. 3g)
Method: as §2

Compound: Cc1c[nH]c(-c2cnc(NCCNc3ccc(C#N)cn3)nc2-c2ccc(Cl)cc2Cl)n1 [GSK-3β inhibitor, CHIR-99021]
- Mast4 degradation (Mast4 [1]): significantly delayed
- Mast4 expression (Mast4 [2]): dramatically increased

Compound: CC(C)C[C@@H](C=O)NC(=O)[C@H](CC(C)C)NC(=O)[C@H](CC(C)C)NC(=O)OCc1ccccc1 [MG-132] (Cbz-Leu-Leu-Leu-aldehyde)
- Mast4-induced Sox9 degradation (Sox9): restored

Compound: Smurf1
- Smurf1-mediated Mast4 degradation (Mast4-PDZ P628A/Y634A): mutation of PY-like motif in the kinase domain of Mast4 (P628A/Y634A) prevented Smurf1-mediated Mast4 degradation

Compound: TGF-β1: TGF-β1 protein (R&D Systems) used to treat cells
- mRNA and protein expression of Mast4 (Mast4 [3]): markedly suppressed
- Smad3 occupancy at the Mast4 promoter (Mast4 promoter [4]): significantly increased
- Mast4 promoter activity (Mast4 promoter [5]): suppressed
- Mast4 mRNA expression level (Mast4 [6]): gradual reduction

Reference: US20250136991A1, “METHOD OF MAKING BONE AND CARTILAGE” (priority 2022, published 2025)
